The source of these data is patent publication US20250221981A1, “MAT2A INHIBITOR AND/OR TSG101 INHIBITOR FOR USE IN ANTIVIRAL THERAPY” (CAMBRIDGE ENTERPRISE LIMITED, priority 2022, published 2025).

In one data set the test system is RPTE/hTERT cells. In words: Cell viability assay, CellTiter-Blue fluorescence. Here is the method: RPTE/hTERT cells were treated with MAT2A inhibitors at increasing concentrations for 48 hrs and assayed for cell viability using CellTiter-Blue fluorescence. Experiments were conducted using biological triplicates.
Experiment was conducted using biological triplicates.
Cell viability was assessed using the Cell-Titer-Blue assay (Promega), following manufacturers guidelines.
On the technique in general: The colour change of resazurin is a common sign of viable cells or microbes.

A further data set deals with Sindbis virus (SINV). The data set can be described thus: SINV titre by plaque assay (BHK-21 cells infected, titrated on BSR cells). The note with it: 2 μM, MOI >10, 24 hrs, initial tests. It is filed as cell-based. On the procedure:
(A) SINV and SFV4: BHK-21 cells were plated. The following day 2 μM PF-9366 or DMSO control was added to media. After 3 hrs cells were infected with SINV or SFV4 (MOI >10). After 24 hrs cells were harvested by scraping. Cells were either pelleted for western blot or freeze/thawed for titration. To titre: BSR cells were plated and the following day infected with 10-fold dilutions, at 1 hpi cells were overlayed with LMA in 2×MEM (+5% FCS). At 72 hpi cells were fixed and stained with toluidine blue.
For Alphavirus infections BHK-21 cells were infected with either SINV or SFV-4 at a multiplicity of infection (MOI) greater than 10, diluted in appropriate medium. At 1 hour post infection (hpi) medium was removed, cells were washed twice with phosphate-buffered saline (PBS), and fresh medium was added. At 24 hpi supernatants were harvested for virus titre by plaque assay.
For SINV and SFV4, confluent BSR cell monolayers were infected with 10-fold dilutions of samples. At 1 hpi cells were overlayed with low melting-point agarose in 2×MEM (+5% FCS). Cells were fixed at 72 hpi and stained with toluidine blue, allowing plaques to be counted.
TSG101 inhibitor Ilaprazole (Sigma-Aldrich) was diluted in 100% DMSO. […]

The next data set deals with Zika African strain. In words: Western blot of Zika E protein in VERO E6 cells, African strain. It is filed as cell-based, Zika virus. The note with it: 20 μM, MOI >10, 48 hrs. Here is the method:
(B) Zika: VERO E6 cells were plated. The following day 20 μM PF-9366 or DMSO control was added to media. After 3 hrs cells were infected with Zika African strain, American Strain or Mock infected (MOI >10). After 48 hrs cells were harvested by scraping, pelleted and lysed into lysis buffer. Western blot was then conducted on the lysed cells. Protein embedded SDS-PAGE gels were transferred to membranes overnight and then probed for Zika E protein and GAPDH as a control.
For Flavivirus infections VERO E6 cells were infected with either African (Afn) or American (Amer) Zika at a multiplicity of infection (MOI) greater than 10, diluted in appropriate medium. At 1 hour post infection (hpi) medium was removed, cells were washed twice with phosphate-buffered saline (PBS), and fresh medium was added. At 48 hpi cells were either harvested for western blot.
Cell lysate preparation and western blots were performed as described in Ren et al. (J Gen Virol. 2012 February; 93 (Pt 2): 319-329). Primary antibodies used were ab53977 (VP1), PAb416 (LTAg), sc-166452 (MAT2A/1A), ab110226 (VP16), sc-53070 (ICP0), anti-Zika E Protein, and either anti-GAPDH or anti-tubulin as a loading control, followed by IRDye 680LT-, or IRDye 800CW-conjugated secondary antibodies. Imaging was performed using the LI-COR Odyssey Infrared Imaging system. Quantification was performed using LI-COR Image Studio Software. […]
A general note: A western blot detects proteins with antibodies after separation by electrophoresis.

Data set [1] has as its system Herpes Simplex Virus-1 (HSV-1). In words: Western blot of HSV-1 ICP0 and VP16 proteins in HaCaT cells. As to conditions: 20 μM, MOI 10, 16 hrs. It is filed as cell-based. Here is the method: (§1) FIG. 9: Inhibition of MAT2A with PF-9366 reduces Herpes Simplex Virus-1 (HSV-1) virion assembly Immortalised keratinocyte (HaCaT) cells were plated and treated with 20 μM PF-9366 or DMSO control. After 3 hrs cells were infected with HSV-1 (MOI 10). After 16 hrs cells were harvested by scraping and either pelleted for western blot or freeze/thawed for titration. To titre: VERO cells were plated and the following day infected with 10-fold dilutions, at 1 hpi cells were overlayed with CMC/media. At 48 hpi cells were fixed and stained with toluidine blue. To western blot: Pellets were lysed and run on SDS-PAGE gel. Proteins were transferred overnight to nitrocellulose membranes. Membranes were probed for HSV-1 ICP0 and VP16 proteins and Tubulin as a control.
(§2) For HSV-1 infections HaCaT cells were infected with HSV-1 at a multiplicity of infection (MOI) of 10 diluted in appropriate medium. At 1 hour post infection (hpi) medium was removed, cells were washed twice with phosphate-buffered saline (PBS), and fresh medium was added with or without inhibitors. At 16 hpi cells were either harvested for western blot or virus titre by plaque assay.
(§3) Cell lysate preparation and western blots were performed as described in Ren et al. (J Gen Virol. 2012 February; 93 (Pt 2): 319-329). […] Quantification was performed using LI-COR Image Studio Software.

The next data set deals with MAT2A. The data set can be described thus: Western blot of cellular MAT2A expression in BKPyV infected RPTE/TERT1 cells. The class given is cell-based, human. The note with it: 10 μM; BKPyV MOI 3; 48 hpi; normalised to tubulin. On the procedure: (C)(i) Effect of PF-9366 on viral early and late gene and cellular MAT2A expression: Cells were infected with BKPyV (MOI 3) in media containing appropriate drug concentrations. At 1 hpi infectious media was removed, cells were washed and fresh media with appropriate drug concentrations was added. Cells were harvested at 48 hpi and a western blot performed. Membranes were blotted for viral late gene VP1, LTAg, cellular MAT2A/MAT1A, and tubulin as a loading control.
(ii) Cellular MAT2A expression increases at lower PF-9366 concentrations: The density of MAT2A expression (lower western blot band) was measured, normalized to tubulin loading control (LiCor Image Studio Software), n=3.
It has previously been noted by Quinlan et al. (Nat Chem Biol. 2017 13 (7): 785-792) that treatment with PF-9366 can increase MAT2A expression as a compensatory mechanism within cells. […] At 48 hpi cells were harvested and protein expression was analysed by western blotting (FIG. 3C(i)). MAT2A expression was quantified from band intensities, normalised to the tubulin loading control and plotted (FIG. 3C(ii), n=3). […]
as §3

The subject of data set [2] is Herpes Simplex Virus-1 (HSV-1). In words: HSV-1 titre by plaque assay (HaCaT cells infected, titrated on VERO cells). The class given is cell-based. As to conditions: 20 μM, MOI 10, 16 hrs. On the procedure: as §1, §2
For HSV-1, confluent VERO cell monolayers were infected with 10-fold dilutions of samples. […] Cells were fixed at 48 hpi and stained with toluidine blue, allowing plaques to be counted. […]

On to `COc1ccc(-c2c(Nc3ccccn3)[nH]c3c(C4=CCCCC4)c(-c4ccccc4)nn3c2=O)cc1` [AG-270], for which the “effect on cell viability and metabolism” value in the data set on RPTE/hTERT cells (MAT2A inhibitor (AG270 1 μM, AZ33 125 nM) in combination with Ilaprazole (5 μM), until 144 hr) was “little effect”; in the data set on RPTE/hTERT cells (at concentrations inhibiting BKPyV replication, 48 hrs), “little effect”.

Consider `CN(C)CCc1nnc2cc(-c3ccccc3)c3cc(Cl)ccc3n12` [PF-9366], for which, in the data set with Sindbis virus (SINV), the “reduction in viral titre (SINV)” value is on record as 7-10 fold. In addition, in the data set with Zika African strain, the “viral protein expression (Zika E protein), African strain” value was “reduction”. Moreover, the “impact on viral protein expression (ICP0 and VP16)” value in data set [1] is “little impact”. For the same compound, the “increase in the cellular expression of MAT2A” value in the data set with MAT2A is listed as 8 fold. Also, the “reduction in HSV-1 viral titres” value in data set [2] is recorded as “greater than 100 fold”.
